≈ marks a conversion by molar mass, not a printed value.
Experiments:
[1] = target: T1, Serine/threonine-protein kinase mTOR (Mus musculus, UniProt Q9JLN9); test: Inhibition of mTOR in TSC1 knockout mouse MEF cells assessed as reduction in phosphorylated S6 level at serine 240/244 residues incubated for 2 hrs by Hoechst/Alexa Fluor 647 staining based analysis; format: cell-based
[2] = target: 3',5'-cyclic-AMP phosphodiesterase 4D (Homo sapiens, UniProt Q08499); test: Inhibition of PDE4D (unknown origin)
[3] = Apparent permeability across basolateral to apical side in MDCK-MDR1 cells; format: ADME, cell-based, Canis lupus familiaris; settings: dog
[4] = Efflux ratio of apparent permeability across basolateral to apical side over apical to basolateral side in MDCK-MDR1 cells; format: ADME, cell-based, Canis lupus familiaris; settings: dog
[5] = target: Serine/threonine-protein kinase ATR (Homo sapiens, UniProt Q13535); test: Inhibition of ATR (unknown origin)-driven CHK1 phosphorylation
[6] = Solubility of compound at pH 6.8; format: physicochemical; settings: buffer
[7] = Apparent permeability across apical to basolateral side in MDCK-MDR1 cells; format: ADME, cell-based, Canis lupus familiaris; settings: dog
Cytochrome P450 3A4 [8] = target: T2, Cytochrome P450 3A4 (Homo sapiens, UniProt P08684); test: Inhibition of CYP3A4 (unknown origin) assessed as Kobs; format: ADME
[9] = target: T1, Serine/threonine-protein kinase mTOR; test: Inhibition of mTOR in Tsc1 knockout mouse neurons assessed as reduction in phosphorylated S6 level incubated for 4 hrs by Hoechst staining based immunofluorescence analysis; format: cell-based, Neuron
[10] = target: Dual specificity tyrosine-phosphorylation-regulated kinase 1A (Homo sapiens) (UniProt Q13627); test: Inhibition of DYRK1A (unknown origin) assessed as residual activity at 10 uM relative to control
Cytochrome P450 3A4 [11] = target: T2, Cytochrome P450 3A4; test: Inhibition of CYP3A4 (unknown origin); format: ADME
[12] = Metabolic stability in mouse liver microsomes assessed as intrinsic clearance at 1 uM incubated for 30 mins in presence of NADPH by LC-MS/MS analysis; format: ADME, Microsome; settings: read-out: CLH
[13] = Genotoxicity in human TK6 cells assessed as micronuclei formation by micronucleus test; format: toxicity, cell-based
[14] = Genotoxicity in human TK6 cells assessed as micronuclei formation in absence of S9 fraction measured after 20 hrs by micronucleus test; format: toxicity, cell-based; settings: tk6, 20 h
[15] = Phototoxicity against mouse BALB/3T3 clone A31 cells assessed as photo-irradiation factor incubated for 1 hr followed by irradiated with 5 J/cm^2 of light dose measured after 24 hrs by neutral red uptake assay; format: toxicity, cell-based; settings: balb/3t3 clone a31, 1 h
[16] = Genotoxicity in human TK6 cells assessed as micronuclei formation in presence of S9 fraction measured after 3 hrs by micronucleus test; format: toxicity, subcellular; settings: s9, 3 h
[17] = Genotoxicity in human TK6 cells assessed as micronuclei formation in absence of S9 fraction measured after 3 hrs by micronucleus test; format: toxicity, cell-based; settings: tk6, 3 h
[18] = Metabolic stability in dog liver microsomes assessed as intrinsic clearance at 1 uM incubated for 30 mins in presence of NADPH by LC-MS/MS analysis; format: ADME, Canis lupus familiaris, Microsome; settings: read-out: CLH
[19] = Phototoxicity against mouse BALB/3T3 clone A31 cells assessed as reduction in cell viability incubated for 1 hr followed by irradiated with 5 J/cm^2 of light dose measured after 24 hrs by neutral red uptake assay; format: toxicity, cell-based; settings: balb/3t3 clone a31, 1 h
[20] = target: Myosin light chain kinase, smooth muscle (Homo sapiens) (UniProt Q15746); test: Inhibition of MYLK (unknown origin) assessed as residual activity at 10 uM relative to control
[21] = target: 1-phosphatidylinositol 3-phosphate 5-kinase (Homo sapiens) (UniProt Q9Y2I7); test: Inhibition of PIKfyve in human U2OS cells coexpressing GFP-tagged FoxO3alpha assessed as residual activity at 10 uM incubated for 2 to 24 hrs by Hoechst staining based analysis relative to control; format: cell-based; settings: time 2-24 hrs
[22] = target: Serine/threonine-protein kinase mTOR (Homo sapiens) (UniProt P42345); test: Inhibition of mTOR (unknown origin) assessed as residual activity at 10 uM relative to control
CYP2D6 = CYP2D6 (Homo sapiens, UniProt P10635); test: Inhibition of CYP2D6 (unknown origin); format: ADME
[23] = Genotoxicity in human TK6 cells assessed as micronuclei formation in presence of S9 fraction measured after 20 hrs by micronucleus test; format: toxicity, subcellular; settings: s9, 20 h
[24] = Metabolic stability in cynomolgus monkey liver microsomes assessed as intrinsic clearance at 1 uM incubated for 30 mins in presence of NADPH by LC-MS/MS analysis; format: ADME, Macaca fascicularis, Microsome; settings: read-out: CLH
[25] = Metabolic stability in human liver microsomes assessed as intrinsic clearance at 1 uM incubated for 30 mins in presence of NADPH by LC-MS/MS analysis; format: ADME, Microsome; settings: read-out: CLH
CYP2C9 = CYP2C9 (Homo sapiens, UniProt P11712); test: Inhibition of CYP2C9 (unknown origin); format: ADME
Chain of CYP2C9 (P11712 whole entry): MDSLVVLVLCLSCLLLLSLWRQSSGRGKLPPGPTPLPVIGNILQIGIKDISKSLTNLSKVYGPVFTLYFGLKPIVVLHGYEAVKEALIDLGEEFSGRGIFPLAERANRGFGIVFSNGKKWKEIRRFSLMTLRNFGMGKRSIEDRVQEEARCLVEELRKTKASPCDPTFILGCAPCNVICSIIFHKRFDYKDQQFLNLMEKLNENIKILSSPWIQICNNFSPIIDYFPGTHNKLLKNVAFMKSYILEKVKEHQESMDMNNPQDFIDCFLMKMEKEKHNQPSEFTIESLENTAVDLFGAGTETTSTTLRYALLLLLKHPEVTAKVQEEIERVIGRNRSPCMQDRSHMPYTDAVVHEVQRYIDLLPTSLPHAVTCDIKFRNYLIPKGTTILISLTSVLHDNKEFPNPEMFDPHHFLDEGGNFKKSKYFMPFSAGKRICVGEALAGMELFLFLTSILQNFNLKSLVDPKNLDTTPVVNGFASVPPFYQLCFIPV

Chain of Serine/threonine-protein kinase ATR (Q13535 whole entry): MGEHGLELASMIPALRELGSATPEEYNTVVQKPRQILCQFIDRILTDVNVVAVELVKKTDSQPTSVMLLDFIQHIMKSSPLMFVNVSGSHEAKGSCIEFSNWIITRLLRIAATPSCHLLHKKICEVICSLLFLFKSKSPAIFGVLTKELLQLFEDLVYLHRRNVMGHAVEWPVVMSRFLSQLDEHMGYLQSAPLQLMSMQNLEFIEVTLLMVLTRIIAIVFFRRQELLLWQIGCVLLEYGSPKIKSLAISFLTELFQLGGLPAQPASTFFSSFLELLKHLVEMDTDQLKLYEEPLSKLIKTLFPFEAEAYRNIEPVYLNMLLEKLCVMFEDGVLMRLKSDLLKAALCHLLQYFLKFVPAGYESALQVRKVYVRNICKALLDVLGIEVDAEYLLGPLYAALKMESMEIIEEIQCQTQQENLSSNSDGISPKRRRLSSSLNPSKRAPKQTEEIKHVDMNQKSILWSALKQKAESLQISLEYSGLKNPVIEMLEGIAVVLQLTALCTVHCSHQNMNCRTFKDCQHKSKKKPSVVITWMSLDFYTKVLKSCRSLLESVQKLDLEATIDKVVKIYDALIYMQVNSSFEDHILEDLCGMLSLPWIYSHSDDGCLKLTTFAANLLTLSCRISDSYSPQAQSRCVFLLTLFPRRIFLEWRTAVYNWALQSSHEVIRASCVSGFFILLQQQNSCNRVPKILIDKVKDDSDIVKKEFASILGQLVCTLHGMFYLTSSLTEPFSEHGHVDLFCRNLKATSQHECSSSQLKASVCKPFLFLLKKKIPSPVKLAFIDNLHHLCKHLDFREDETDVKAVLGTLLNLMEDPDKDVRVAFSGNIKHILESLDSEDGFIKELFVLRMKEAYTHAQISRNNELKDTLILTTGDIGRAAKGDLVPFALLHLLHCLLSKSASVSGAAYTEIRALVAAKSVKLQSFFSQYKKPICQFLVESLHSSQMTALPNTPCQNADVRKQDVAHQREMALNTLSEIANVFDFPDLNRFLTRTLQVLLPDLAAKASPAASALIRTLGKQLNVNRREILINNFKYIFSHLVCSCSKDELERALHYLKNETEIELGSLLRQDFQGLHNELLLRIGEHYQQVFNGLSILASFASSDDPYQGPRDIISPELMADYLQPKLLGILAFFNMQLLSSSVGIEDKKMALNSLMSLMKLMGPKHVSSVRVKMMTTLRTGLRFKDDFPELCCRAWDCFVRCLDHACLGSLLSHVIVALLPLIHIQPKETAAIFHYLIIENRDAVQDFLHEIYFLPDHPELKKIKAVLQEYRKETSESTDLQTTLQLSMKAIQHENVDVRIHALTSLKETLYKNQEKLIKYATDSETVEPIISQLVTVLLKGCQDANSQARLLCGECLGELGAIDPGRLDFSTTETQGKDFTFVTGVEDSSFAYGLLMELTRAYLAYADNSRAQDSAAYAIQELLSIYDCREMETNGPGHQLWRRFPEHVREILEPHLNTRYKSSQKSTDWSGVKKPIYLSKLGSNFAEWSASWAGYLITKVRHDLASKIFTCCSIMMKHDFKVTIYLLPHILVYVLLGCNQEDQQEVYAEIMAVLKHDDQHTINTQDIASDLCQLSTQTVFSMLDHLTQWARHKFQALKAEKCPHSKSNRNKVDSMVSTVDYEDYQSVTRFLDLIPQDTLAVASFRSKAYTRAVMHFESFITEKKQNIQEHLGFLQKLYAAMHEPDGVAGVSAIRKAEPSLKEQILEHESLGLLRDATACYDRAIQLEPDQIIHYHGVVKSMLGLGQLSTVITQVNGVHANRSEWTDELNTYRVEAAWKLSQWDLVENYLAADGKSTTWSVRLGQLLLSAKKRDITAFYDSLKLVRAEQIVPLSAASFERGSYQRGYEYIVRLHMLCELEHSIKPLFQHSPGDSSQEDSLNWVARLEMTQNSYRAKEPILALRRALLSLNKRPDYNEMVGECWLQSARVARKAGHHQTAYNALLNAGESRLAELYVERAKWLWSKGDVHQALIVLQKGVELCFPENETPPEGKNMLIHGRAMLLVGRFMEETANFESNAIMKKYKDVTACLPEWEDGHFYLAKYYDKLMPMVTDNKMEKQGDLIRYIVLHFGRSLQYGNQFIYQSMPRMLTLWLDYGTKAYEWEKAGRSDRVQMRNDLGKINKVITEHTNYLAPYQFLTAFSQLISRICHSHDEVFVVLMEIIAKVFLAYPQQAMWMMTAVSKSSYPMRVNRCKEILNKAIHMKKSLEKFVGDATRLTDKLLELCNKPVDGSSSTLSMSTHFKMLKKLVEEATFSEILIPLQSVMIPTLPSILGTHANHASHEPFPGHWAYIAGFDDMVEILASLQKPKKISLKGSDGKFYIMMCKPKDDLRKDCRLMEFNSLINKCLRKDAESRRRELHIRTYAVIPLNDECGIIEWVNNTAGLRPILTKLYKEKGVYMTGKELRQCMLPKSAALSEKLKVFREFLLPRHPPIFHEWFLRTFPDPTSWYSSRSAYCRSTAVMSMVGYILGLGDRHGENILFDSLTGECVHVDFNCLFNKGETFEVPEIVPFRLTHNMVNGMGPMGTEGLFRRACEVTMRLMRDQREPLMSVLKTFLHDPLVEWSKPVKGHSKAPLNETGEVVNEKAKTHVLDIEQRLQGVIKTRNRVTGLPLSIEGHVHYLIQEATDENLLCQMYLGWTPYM
T2 sequence (P08684 whole entry): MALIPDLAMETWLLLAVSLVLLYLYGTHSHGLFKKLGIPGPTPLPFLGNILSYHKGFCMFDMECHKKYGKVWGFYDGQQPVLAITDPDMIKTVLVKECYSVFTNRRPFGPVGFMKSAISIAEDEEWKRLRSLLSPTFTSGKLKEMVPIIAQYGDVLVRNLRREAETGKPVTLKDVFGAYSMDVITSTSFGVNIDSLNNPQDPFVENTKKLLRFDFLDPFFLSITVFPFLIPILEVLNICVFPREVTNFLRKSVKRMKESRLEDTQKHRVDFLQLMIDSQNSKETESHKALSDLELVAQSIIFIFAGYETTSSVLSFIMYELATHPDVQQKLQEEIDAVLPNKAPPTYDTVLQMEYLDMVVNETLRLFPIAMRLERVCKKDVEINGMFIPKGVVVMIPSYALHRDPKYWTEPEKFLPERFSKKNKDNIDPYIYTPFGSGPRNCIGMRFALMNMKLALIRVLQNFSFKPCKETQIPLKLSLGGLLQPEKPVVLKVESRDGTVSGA
Chain of 3',5'-cyclic-AMP phosphodiesterase 4D (Q08499 whole entry): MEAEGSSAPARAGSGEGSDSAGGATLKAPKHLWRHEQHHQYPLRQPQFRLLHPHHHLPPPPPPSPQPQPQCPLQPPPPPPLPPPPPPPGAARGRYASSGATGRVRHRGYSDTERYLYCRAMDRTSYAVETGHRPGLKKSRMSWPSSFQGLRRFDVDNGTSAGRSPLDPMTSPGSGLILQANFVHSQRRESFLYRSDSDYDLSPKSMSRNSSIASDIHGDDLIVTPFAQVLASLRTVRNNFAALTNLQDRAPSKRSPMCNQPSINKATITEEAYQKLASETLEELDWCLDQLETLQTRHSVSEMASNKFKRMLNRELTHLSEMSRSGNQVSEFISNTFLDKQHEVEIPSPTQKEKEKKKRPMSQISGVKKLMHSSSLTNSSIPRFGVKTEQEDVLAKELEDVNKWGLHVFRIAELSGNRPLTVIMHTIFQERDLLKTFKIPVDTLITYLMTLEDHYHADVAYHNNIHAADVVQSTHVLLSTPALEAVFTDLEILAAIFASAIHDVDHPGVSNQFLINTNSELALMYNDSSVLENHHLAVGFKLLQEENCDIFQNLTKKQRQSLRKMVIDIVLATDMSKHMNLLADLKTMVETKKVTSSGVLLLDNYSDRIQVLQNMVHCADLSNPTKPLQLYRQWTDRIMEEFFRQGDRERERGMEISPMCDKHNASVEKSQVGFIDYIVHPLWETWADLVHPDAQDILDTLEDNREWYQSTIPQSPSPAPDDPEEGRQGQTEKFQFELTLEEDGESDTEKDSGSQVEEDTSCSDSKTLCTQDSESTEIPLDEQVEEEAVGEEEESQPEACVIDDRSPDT
Chain of CYP2D6 (P10635 whole entry): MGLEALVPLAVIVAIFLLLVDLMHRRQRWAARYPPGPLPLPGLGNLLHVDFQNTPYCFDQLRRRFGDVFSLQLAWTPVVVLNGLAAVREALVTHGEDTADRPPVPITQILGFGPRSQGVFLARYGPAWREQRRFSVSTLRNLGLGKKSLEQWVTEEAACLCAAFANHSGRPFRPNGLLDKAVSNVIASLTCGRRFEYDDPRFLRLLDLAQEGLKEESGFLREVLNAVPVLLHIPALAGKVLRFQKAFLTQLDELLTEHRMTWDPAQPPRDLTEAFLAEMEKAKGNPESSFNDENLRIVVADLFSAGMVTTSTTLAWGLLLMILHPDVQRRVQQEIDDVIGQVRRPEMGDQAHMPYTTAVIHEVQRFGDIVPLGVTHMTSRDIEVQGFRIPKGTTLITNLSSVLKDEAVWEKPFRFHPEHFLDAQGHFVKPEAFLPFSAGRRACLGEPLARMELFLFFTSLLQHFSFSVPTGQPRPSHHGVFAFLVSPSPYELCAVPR

SMILES	IC50 [1] [nM]	IC50 [2] [nM]	Papp B→A [3] [×10⁻⁶ cm/s]	efflux ratio [4]	IC50 [5] [nM]	solubility [6] [µg/mL]	Papp A→B [7] [×10⁻⁶ cm/s]	Kobs (Cytochrome P450 3A4 [8]) [min⁻¹]	further results
C[C@@H]1COCCN1c1cc(N2CCOC[C@@H]2C)nc2[nH]c(-c3cc[nH]n3)cc12	34	16000							
C[C@@H]1COCCN1c1nc(N2CCOC[C@@H]2C)cc2sc(-c3cc[nH]n3)nc12	96	960							
C[C@@H]1COCCN1c1cc(N2CCOC[C@@H]2C)nc2[nH]c(-c3nccs3)nc12		21000	8.24	0.66	24000	250 (≈ 624 µM)	12.7	0.021	
C[C@@H]1COCCN1c1cc(N2CCOC[C@@H]2C)cc2sc(-c3cc[nH]n3)nc12	15	42							
CO[C@H]1C[C@@H]2CC[C@@H](C)[C@@](O)(O2)C(=O)C(=O)N2CCCC[C@H]2C(=O)O[C@H]([C@H](C)C[C@@H]2CC[C@@H](OCCO)[C@H](OC)C2)CC(=O)[C@H](C)/C=C(\C)[C@@H](O)[C@@H](OC)C(=O)[C@H](C)C[C@H](C)/C=C/C=C/C=C/1C [EVEROLIMUS]									IC50 [9]: 0.005 nM
C[C@@H]1COCCN1c1nc(N2CCOC[C@@H]2C)nc2sc(-c3cc[nH]n3)nc12	5		25.4				27.4	0.006	Activity [10]: 0.15%; IC50 (Cytochrome P450 3A4 [11]): 33200 nM; microsomal CLint at 1 µM [12]: 22 µL/min/mg; Activity [13]: Toxic; Activity [14]: Toxic; Activity [15]: 253; Activity [16]: Toxic; Activity [17]: Toxic; microsomal CLint at 1 µM [18]: 26 µL/min/mg; Activity [19]: Toxic; Activity [20]: 0.15%; Activity [21]: 0.3%; Activity [22]: 1.3%; IC50 (CYP2D6): > 50000 nM; Activity [23]: Toxic; microsomal CLint at 1 µM [24]: 82 µL/min/mg; microsomal CLint at 1 µM [25]: 92 µL/min/mg; IC50 (CYP2C9): > 50000 nM
C[C@@H]1COCCN1c1cc(N2C3CCC2COC3)nc2[nH]c(-c3ccccn3)nc12	6.6	9200	8.04	0.84	2250	< 2	9.57	0.036	
C[C@@H]1COCCN1c1cc(N2CCOC[C@@H]2C)nc2[nH]c(-c3cc(O)ccc3F)nc12		6000	15.5	0.61	7140	53 (≈ 124 µM)	25.6	0.004	
C[C@@H]1COCCN1c1cc(N2CCOC[C@@H]2C)nc2[nH]c(-c3cc[nH]n3)nc12	7.7	18000	40	2.52	1110	160 (≈ 417 µM)	15.9	0.004	
C[C@@H]1COCCN1c1nc(N2CCOC[C@@H]2C)nc2[nH]c(-c3cc[nH]n3)nc12	16	4900							
C[C@@H]1COCCN1c1nc(N2CCOC[C@@H]2C)cc2[nH]c(-c3cc[nH]n3)nc12	46	11000							

Reference: ChEMBL document CHEMBL5331134, “Identification of Brain-Penetrant ATP-Competitive mTOR Inhibitors for CNS Syndromes” (J Med Chem, 2023)
